± gives the expanded uncertainty stated by the source.
Conditions: Liquid; for Critical pressure: pulse heating; for Critical temperature: pulse-heating method

SMILES	Critical pressure [kPa]	Critical temperature [K]
OCCc1ccccc1 [2-phenylethanol]	3850 ± 240	720 ± 14
OCCCc1ccccc1 [3-phenyl-1-propanol]	3460 ± 200	732 ± 14
OCCCCc1ccccc1 [4-phenyl-1-butanol]	3070 ± 180	746 ± 14
Oc1ccccc1 [phenol]	5670 ± 340	695 ± 14

— the NIST ThermoML archive (doi:10.1021/je0604380)
